Experimental data from patent publication US20260042755A1, “GPR6 INVERSE AGONISTS” (MapLight Therapeutics, Inc., priority 2022, published 2026).
pIC50: −log10 of the molar value.

Key:
GPR3 = biological target: T1, GPR3 (Homo sapiens, UniProt P46089); test: GPR3 antagonist functional cAMP assay (LANCE Ultra cAMP TR-FRET, CHO cells stably expressing GPR3); format: cell-based; settings: CHO cells stably expressing GPR3, cAMP assay (Example 24)
T1 construct: expressed in transfected cells; host or cells: CHO cells
T1 sequence (P46089 whole entry, species assumed): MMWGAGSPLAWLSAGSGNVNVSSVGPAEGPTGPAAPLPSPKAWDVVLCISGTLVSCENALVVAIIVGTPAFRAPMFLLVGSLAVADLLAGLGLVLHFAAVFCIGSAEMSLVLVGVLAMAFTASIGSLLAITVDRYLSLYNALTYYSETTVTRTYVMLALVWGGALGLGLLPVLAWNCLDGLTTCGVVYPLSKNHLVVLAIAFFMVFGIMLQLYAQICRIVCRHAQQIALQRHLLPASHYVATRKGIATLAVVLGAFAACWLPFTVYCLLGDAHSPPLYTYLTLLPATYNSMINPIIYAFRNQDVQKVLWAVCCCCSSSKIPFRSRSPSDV
In short: (§1)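 10,000 cells/well; KRB buffer + 0.1% BSA + 150 μM Ro 20-1724; cpd 45 min, 37 °C, 0.1% DMSO; TR-FRET cAMP, 665 nm; 4-PL fit, normalized to DMSO (0.1%) and reference (100%) → IC50.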

GPR6 = biological target: T2, GPR6 (Homo sapiens, UniProt P46095); test: GPR6 antagonist functional cAMP assay (LANCE Ultra cAMP TR-FRET, CHO cells stably expressing GPR6); format: cell-based; settings: CHO cells stably expressing GPR6, cAMP assay (Example 24)
T2 construct: expressed in transfected cells; host or cells: CHO cells
T2 sequence (P46095 whole entry): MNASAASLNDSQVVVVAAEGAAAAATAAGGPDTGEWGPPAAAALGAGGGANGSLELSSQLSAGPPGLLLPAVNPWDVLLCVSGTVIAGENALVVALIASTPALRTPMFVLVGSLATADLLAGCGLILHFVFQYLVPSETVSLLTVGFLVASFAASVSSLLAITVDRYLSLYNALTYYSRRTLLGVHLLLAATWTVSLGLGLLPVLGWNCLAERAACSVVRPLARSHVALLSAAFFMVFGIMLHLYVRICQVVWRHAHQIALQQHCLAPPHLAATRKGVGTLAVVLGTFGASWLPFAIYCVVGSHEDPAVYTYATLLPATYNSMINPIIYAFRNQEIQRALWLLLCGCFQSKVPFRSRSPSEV
In short: as §1

Row | SMILES | pIC50 (GPR3) | pIC50 (GPR6)
1 | COc1cccc(-c2nc3c(nc2N2CCC(Oc4ccc(F)cc4F)CC2)CCN(S(C)(=O)=O)C3)n1 [Compound 59, 2-(4-(2,4-difluorophenoxy)piperidin-1-yl)-3-(6-methoxypyridin-2-yl)-6-(methylsulfonyl)-5,6,7,8-tetrahydropyrido[3,4-b]pyrazine] | 4.52 to 6.00 | 4.52 to 6.00
2 | CC(=O)N1CCc2nc(N3CCC(Oc4ccc(F)cc4F)CC3)c(-c3cccc(OC4CCOC4)n3)nc2C1 (centres unmarked) [Compound 61, 1-{2-[4-(2,4-difluorophenoxy)piperidin-1-yl]-3-[6-(oxolan-3-yloxy)pyridin-2-yl]-5H,6H,7H,8H-pyrido[3,4-b]pyrazin-6-yl}ethan-1-one] | 4.52 to 6.00 | 4.52 to 6.00
3 | CC(=O)N1CC=C(c2nc3c(nc2N2CCC(Oc4ccc(F)cc4F)CC2)CCN(C(C)=O)C3)CC1 [Compound 69, 1-(3-(1-acetyl-1,2,3,6-tetrahydropyridin-4-yl)-2-(4-(2,4-difluorophenoxy)piperidin-1-yl)-7,8-dihydropyrido[3,4-b]pyrazin-6(5H)-yl)ethan-1-one] | 4.52 to 6.00 | 4.52 to 6.00
4 | CC(=O)N1CCC=C(c2nc3c(nc2N2CCC(Oc4ccc(F)cc4F)CC2)CCN(C(C)=O)C3)C1 [Compound 71, 1-[3-(1-acetyl-1,2,5,6-tetrahydropyridin-3-yl)-2-[4-(2,4-difluorophenoxy)piperidin-1-yl]-5H,6H,7H,8H-pyrido[3,4-b]pyrazin-6-yl]ethan-1-one] | 4.52 to 6.00 | 4.52 to 6.00
5 | CC(=O)N1CC=C(c2nc3c(nc2N2CCC(Oc4ccc(F)cc4F)CC2)CCN(C(C)=O)C3)C1 [Compound 72, 1-(3-{6-acetyl-2-[4-(2,4-difluorophenoxy)piperidin-1-yl]-5H,6H,7H,8H-pyrido[3,4-b]pyrazin-3-yl}-2,5-dihydro-1H-pyrrol-1-yl)ethan-1-one] | 4.52 to 6.00 | 4.52 to 6.00
6 | CC(=O)N1CCc2nc(N3CCC(Oc4ccc(F)cc4F)CC3)c(-c3cnn(CCC#N)c3)nc2C1 [Compound 73, 3-(4-{6-acetyl-2-[4-(2,4-difluorophenoxy)piperidin-1-yl]-5H,6H,7H,8H-pyrido[3,4-b]pyrazin-3-yl}-1H-pyrazol-1-yl)propanenitrile] | 4.52 to 6.00 | 6.00 to 7.00
7 | COCCn1cc(-c2nc3c(nc2N2CCC(Oc4ccc(F)cc4F)CC2)CCN(C(C)=O)C3)cn1 [Compound 74, 1-{2-[4-(2,4-difluorophenoxy)piperidin-1-yl]-3-[1-(2-methoxyethyl)-1H-pyrazol-4-yl]-5H,6H,7H,8H-pyrido[3,4-b]pyrazin-6-yl}ethan-1-one] | 4.52 to 6.00 | 6.00 to 7.00
8 | CC(=O)N1CCc2nc(N3CCC(Oc4ccc(F)cc4F)CC3)c(-c3cnn(C4COC4)c3)nc2C1 [Compound 77, 1-{2-[4-(2,4-difluorophenoxy)piperidin-1-yl]-3-[1-(oxetan-3-yl)-1H-pyrazol-4-yl]-5H,6H,7H,8H-pyrido [3,4-b]pyrazin-6-yl}ethan-1-one] | 4.52 to 6.00 | 6.00 to 7.00
9 | CC(=O)N1CCc2nc(N3CCC(Oc4ccc(F)cc4F)CC3)c(-c3ccn(C)c(=O)c3)nc2C1 [Compound 78, 4-{6-acetyl-2-[4-(2,4-difluorophenoxy)piperidin-1-yl]-5H,6H,7H,8H-pyrido[3,4-b]pyrazin-3-yl}-1-methyl-1,2-dihydropyridin-2-one] | 4.52 to 6.00 | 4.52 to 6.00
10 | CC(=O)N1CCc2nc(N3CCC(Oc4ccc(F)cc4F)CC3)c(-c3cnn(C4CS(=O)(=O)C4)c3)nc2C1 [Compound 82, 3-(4-{6-acetyl-2-[4-(2,4-difluorophenoxy)piperidin-1-yl]-5H,6H,7H,8H-pyrido[3,4-b]pyrazin-3-yl}-1H-pyrazol-1-yl)-1λ^6-thietane-1,1-dione] | 4.52 to 6.00 | 4.52 to 6.00
11 | COc1cccc(-c2nc3c(nc2N2CCC(Oc4ccc(F)cc4F)CC2)CCN(C(C)=O)C3)n1 [Compound 86, 1-(2-(4-(2,4-difluorophenoxy)piperidin-1-yl)-3-(6-methoxypyridin-2-yl)-7,8-dihydropyrido[3,4-b]pyrazin-6(5H)-yl)ethan-1-one] | 4.52 to 6.00 | 6.00 to 7.00

The next lines start with the values.

Row | pIC50 (GPR3) | pIC50 (GPR6) | SMILES
12 | 4.52 to 6.00 | 4.52 to 6.00 | O=S1(=Nc2ccc(F)cc2F)CCN(c2nc3ccncc3nc2-c2cn[nH]c2)CC1 [Compound 58, 4-(3-(1H-pyrazol-4-yl)pyrido[3,4-b]pyrazin-2-yl)-1-((2,4-difluorophenyl)imino)-1l6-thiomorpholine 1-oxide]
13 | 4.52 to 6.00 | 4.52 to 6.00 | CC(=O)N1CCc2nc(N3CCC(Oc4ccc(F)cc4F)CC3)c(-c3cn[nH]c3C3CC3)nc2C1 [Compound 62, 1-[3-(5-cyclopropyl-1H-pyrazol-4-yl)-2-[4-(2,4-difluorophenoxy)piperidin-1-yl]-5H,6H,7H,8H-pyrido[3,4-b]pyrazin-6-yl]ethan-1-one]
14 | 6.00 to 7.00 | 4.52 to 6.00 | COCC1(Oc2ccc(F)cc2F)CCN(c2nc3ccncc3nc2-c2cn[nH]c2)CC1 [Compound 63, 2-(4-(2,4-difluorophenoxy)-4-(methoxymethyl)piperidin-1-yl)-3-(1H-pyrazol-4-yl)pyrido[3,4-b]pyrazine]
15 | 6.00 to 7.00 | 6.00 to 7.00 | Clc1ccc(Cl)c(CN2CCN(c3nc4cnccc4nc3-c3ncc[nH]3)CC2)c1 [Compound 64, 1-[(2,5-dichlorophenyl)methyl]-4-[2-(1H-imidazol-2-yl)pyrido[3,4-b]pyrazin-3-yl]piperazine]
16 | 6.00 to 7.00 | 4.52 to 6.00 | Fc1ccc(CN2CCN(c3nc4cnccc4nc3-c3ncc[nH]3)CC2)c(Cl)c1 [Compound 65, 1-[(2-chloro-4-fluorophenyl)methyl]-4-[2-(1H-imidazol-2-yl)pyrido[3,4-b]pyrazin-3-yl]piperazine]
17 | 4.52 to 6.00 | 4.52 to 6.00 | CC(=O)N1CCc2nc(N3CCC(Oc4ccc(F)cc4F)CC3)c(-c3cc[nH]c(=O)c3)nc2C1 [Compound 66, 4-{6-acetyl-2-[4-(2,4-difluorophenoxy)piperidin-1-yl]-5H,6H,7H,8H-pyrido[3,4-b]pyrazin-3-yl}-1,2-dihydropyridin-2-one]
18 | 4.52 to 6.00 | 4.52 to 6.00 | COCn1ccnc1-c1nc2c(nc1N1CCC(Oc3ccc(F)cc3F)CC1)CCN(C(C)=O)C2 [Compound 67, 1-{2-[4-(2,4-difluorophenoxy)piperidin-1-yl]-3-[1-(methoxymethyl)-1H-imidazol-2-yl]-5H,6H,7H,8H-pyrido[3,4-b]pyrazin-6-yl}ethan-1-one]
19 | 4.52 to 6.00 | 6.00 to 7.00 | CC(=O)N1CCc2nc(N3CCC(Oc4ccc(F)cc4F)CC3)c(-c3cccc(C)n3)nc2C1 [Compound 68, 1-{2-[4-(2,4-difluorophenoxy)piperidin-1-yl]-3-(6-methylpyridin-2-yl)-5H,6H,7H,8H-pyrido[3,4-b]pyrazin-6-yl}ethan-1-one]
20 | 4.52 to 6.00 | 6.00 to 7.00 | CS(=O)(=O)N1CCc2nc(N3CCC(Oc4ccc(F)cc4F)CC3)c(-c3cn[nH]c3)nc2C1 [Compound 70, 2-(4-(2,4-difluorophenoxy)piperidin-1-yl)-6-(methylsulfonyl)-3-(1H-pyrazol-4-yl)-5,6,7,8-tetrahydropyrido[3,4-b]pyrazine]
21 | 4.52 to 6.00 | 4.52 to 6.00 | CC(=O)N1CCc2nc(N3CCC(Oc4ccc(F)cc4F)CC3)c(-c3nccs3)nc2C1 [Compound 75, 1-{2-[4-(2,4-difluorophenoxy)piperidin-1-yl]-3-(1,3-thiazol-2-yl)-5H,6H,7H,8H-pyrido[3,4-b]pyrazin-6-yl}ethan-1-one]
22 | 4.52 to 6.00 | 6.00 to 7.00 | CC(=O)N1CCc2nc(N3CCC(Oc4ccc(F)cc4F)CC3)c(-c3cnn(-c4ccccc4)c3)nc2C1 [Compound 76, 1-{2-[4-(2,4-difluorophenoxy)piperidin-1-yl]-3-(1-phenyl-1H-pyrazol-4-yl)-5H,6H,7H,8H-pyrido[3,4-b]pyrazin-6-yl}ethan-1-one]
23 | 4.52 to 6.00 | 4.52 to 6.00 | CC(=O)N1CCc2nc(N3CCC(Oc4ccc(F)cc4F)CC3)c(-c3ccccn3)nc2C1 [Compound 79, 1-{2-[4-(2,4-difluorophenoxy)piperidin-1-yl]-3-(pyridin-2-yl)-5H,6H,7H,8H-pyrido[3,4-b]pyrazin-6-yl}ethan-1-one]
24 | 4.52 to 6.00 | ≤ 4.52 | COc1cccnc1-c1nc2c(nc1N1CCC(Oc3ccc(F)cc3F)CC1)CCN(C(C)=O)C2 [Compound 80, 1-{2-[4-(2,4-difluorophenoxy)piperidin-1-yl]-3-(3-methoxypyridin-2-yl)-5H,6H,7H,8H-pyrido[3,4-b]pyrazin-6-yl}ethan-1-one]
25 | 4.52 to 6.00 | 6.00 to 7.00 | CC(=O)N1CCc2nc(N3CCC(Oc4ccc(F)cc4F)CC3)c(-c3cnn(CC#N)c3)nc2C1 [Compound 81, 2-(4-{6-acetyl-2-[4-(2,4-difluorophenoxy)piperidin-1-yl]-5H,6H,7H,8H-pyrido[3,4-b]pyrazin-3-yl}-1H-pyrazol-1-yl)acetonitrile]
26 | 4.52 to 6.00 | 4.52 to 6.00 | CC(=O)N1CCc2nc(N3CCC(Oc4ccc(F)cc4F)CC3)c(-c3cnc[nH]3)nc2C1 [Compound 84, 1-{2-[4-(2,4-difluorophenoxy)piperidin-1-yl]-3-(1H-imidazol-5-yl)-5H,6H,7H,8H-pyrido[3,4-b]pyrazin-6-yl}ethan-1-one]
27 | 4.52 to 6.00 | 4.52 to 6.00 | Fc1ccc(OC2CCN(c3nc4ccncc4nc3-c3ccn[nH]3)CC2)c(F)c1 [Compound 85, 4-(2,4-difluorophenoxy)-1-[3-(1H-pyrazol-5-yl)pyrido[3,4-b]pyrazin-2-yl]piperidine]
28 | 4.52 to 6.00 | 6.00 to 7.00 | COc1cncc(-c2nc3c(nc2N2CCC(Oc4ccc(F)cc4F)CC2)CCN(C(C)=O)C3)n1 [Compound 87, 1-{2-[4-(2,4-difluorophenoxy)piperidin-1-yl]-3-(6-methoxypyrazin-2-yl)-5H,6H,7H,8H-pyrido[3,4-b]pyrazin-6-yl}ethan-1-one]
